Consider 22 compounds from US20090176804A1, “2-PHENYL-INDOLES AS PROSTAGLANDIN D2 RECEPTOR ANTAGONISTS” (priority 2006, published 2009).

This experiment addresses T1, DP receptor (Homo sapiens, UniProt Q13258).
T1 construct: the human cell line LS174T, which expresses the endogenous DP receptor; endogenous in cells; host or cells: LS174T (human cell line)
T1 sequence (Q13258 1-359): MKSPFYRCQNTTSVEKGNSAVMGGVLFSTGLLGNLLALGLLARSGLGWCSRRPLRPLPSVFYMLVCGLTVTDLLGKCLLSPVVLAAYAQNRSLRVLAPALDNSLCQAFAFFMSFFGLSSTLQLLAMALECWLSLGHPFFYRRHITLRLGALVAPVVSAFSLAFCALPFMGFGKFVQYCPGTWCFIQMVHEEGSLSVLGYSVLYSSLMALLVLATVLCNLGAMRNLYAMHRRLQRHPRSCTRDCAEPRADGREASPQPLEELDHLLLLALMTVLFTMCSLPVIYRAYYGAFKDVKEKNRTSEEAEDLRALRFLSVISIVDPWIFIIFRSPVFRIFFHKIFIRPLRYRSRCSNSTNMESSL
As to the kind of experiment: SPA cAMP assay in human LS174 T cells (human DP functional assay). To be noted: concentration of the compound producing 50% inhibition in the SPA cAMP assay in human LS174 T cells; PGD2 15 nM final. Format: cell-based. An excerpt:
As used in the examples and preparations that follow, as well as the rest of the application, the terms used therein shall have the meanings indicated: “kg” refers to kilograms, “g” refers to grams, “mg” refers to milligrams, “μg” refers to micrograms, “mol” refers to moles, “mmol” refers to millimoles, “M” refers to molar, “mM” refers to millimolar, “μM” refers to micromolar, “nM” refers to nanomolar, “L” refers to liters, “mL” or “ml” refers to milliliters, “μL” refers to microliters, “° C.” refers to degrees Celsius, “mp” or “m.p.” refers to melting point, “bp” or “b.p.” refers to boiling point, “mm of Hg” refers to pressure in millimeters of mercury, “cm” refers to centimeters, “nm” refers to nanometers, “abs.” refers to absolute, “conc.” refers to concentrated, “c” refers to concentration in g/mL, “rt” refers to room temperature, “TLC” refers to thin layer chromatography, “HPLC” refers to high performance liquid chromatography, “i.p.” refers to intraperitoneally, “i.v.” refers to intravenously, “s”=singlet, “d”=doublet; “t”=triplet; “q”=quartet; “m”=multiplet, “dd”=doublet of doublets; “br”=broad, “LC”=liquid chromatograph, “MS”=mass spectrograph, “ESI/MS”=electrospray ionization/mass spectrograph, “RT”=retention time, “M”=molecular ion, “PSI”=pounds per square inch, “DMSO”=dimethyl sulfoxide, “DMF”=N,N-dimethylformamide, “CDI”=1,1′-carbonyldiimidazole, “DCM” or “CH2Cl2”=dichloromethane, “HCl”=hydrochloric acid, “SPA”=Scintillation Proximity Assay, “ATTC”=American Type Culture Collection, “FBS”=Foetal Bovine Serum, “MEM”=Minimal Essential Medium, “CPM”=Counts Per Minute, “EtOAc”=ethyl acetate, “PBS”=Phosphate Buffered Saline, “TMD”=transmembrane domain, “IBMX”=3-isobutyl-1-methylxanthine, “cAMP”=cyclic adenosine monophosphate, “IUPAC”=International Union of Pure and Applied Chemistry, “MHz”=megahertz, “PEG”=polyethylene glycol, “MeOH”=methanol, “N”=normality, “THF”=tetrahydrofuran, “h”=hours, “min”=minute(s), “MeNH2”=methyl amine, “N2”=nitrogen gas, “iPrOH”=isopropyl alcohol, “O.D.”=outer diameter, “MeCN” or “CH3CN”=acetonitrile, “Et2O”=ethyl ether, “TFA”=TFA, “Prep LC”=preparatory “flash” liquid chromatography, “SPE”=solid phase extraction, “LAH”=lithium aluminum hydride, “pmol”=picomolar, “heptane”=n-heptane, “HMBA-AM” resin=4-hydroxymethylbenzoic acid amino methyl resin, “PdCl2(dppf)2”=1,1′-bis(diphenylphosphino)ferrocene-palladium (II) dichloride DCM complex, “HBTU”=2-(1H-benzotriazol-1yl)-1,1,3,3-tetramethyluronium hexafluorophosphate, “DIEA”=diisopropylethylamine, “CsF”=cesium fluoride, “LiOH”=lithium hydroxide, “˜”=approximately, “IC50”=the concentration of the compound producing 50% inhibition in the SPA cAMP assay in human LS174 T cells.
The inhibitory effects of the compounds according to the invention are assessed in a human DP functional assay. A cAMP assay is employed using the human cell line LS174T, which expresses the endogenous DP receptor. The protocol is similar to that described previously (Wright D H, Ford-Hutchinson A W, Chadee K, Metters K M, The human prostanoid DP receptor stimulates mucin secretion in LS174T cells, Br J Pharmacol. 131(8):1537-45 (2000)).
Protocol for SPA cAMP Assay in Human LS174 T Cells
• PGD2 (Cayman Chemical Cat#12010) • IBMX (Sigma Cat# 5879) • cAMP SPA direct screening assay system (Amersham code RPA 559) • 96-well cell plates (Wallac Cat#1450-516) • Wallac 1450 Microplate Trilux scintillation counter (PerkinElmer) • Plate sealers • Eppendorf tubes • Dulbecco's Phosphate-Buffered Saline (PBS) (Invitrogen Cat#14040-133) • Distilled water • Vortex • Magnetic stirrer and stirrer bars
Add 50 μL of […] IBMX into 100 mL PBS to make a final concentration of 100 μM and sonicate at 30° C. for 20 minutes.
Dissolve 1 mg PGD2 (FW, 352.5) in 284 μL DMSO to make 10 mM stock solution and store at […]. Before each assay, it is freshly prepared. Add 3 μL of 10 mM stock solution to […], mix it thoroughly, and transfer 10 mL to 40 mL PBS. […]
Consider `CCS(=O)(=O)NC(=O)Cc1c(-c2ccc(Cl)c(S(=O)(=O)NC3CCCCC3)c2)[nH]c2ccccc12` [Example 10, 2-Chloro-N-cyclohexyl-5-[3-(2-ethanesulfonylamino-2-oxo-ethyl)-1H-indol-2-yl]-benzenesulfonamide], for which the IC50 was determined as 2.7 nM.

For the compound `O=C(O)Cc1c(-c2ccc(Cl)c(NS(=O)(=O)Cc3cccc(Cl)c3)c2)[nH]c2ccccc12` [Example 16, {2-[4-Chloro-3-(3-chloro-phenylmethanesulfonylamino)-phenyl]-1H-indol-3-yl}-acetic Acid], the IC50 turned out to be 12 nM.

`CNC(=O)Cc1c(-c2ccc(Cl)c(S(=O)(=O)NC3CCCCC3)c2)[nH]c2ccccc12` [Example 3, 2-[2-(4-Chloro-3-cyclohexylsulfamoyl-phenyl)-1H-indol-3-yl]-N-methyl-acetamide] showed an IC50 of 509 nM.

`O=C(O)Cc1c(-c2ccc(Cl)c(S(=O)(=O)NC3CCCCC3)c2)[nH]c2cccc(Cl)c12` [Example 4, [4-Chloro-2-(4-chloro-3-cyclohexylsulfamoyl-phenyl)-1H-indol-3-yl]-acetic Acid] displayed an IC50 of 0.2 nM.

`Cc1cccc2[nH]c(-c3ccc(Cl)c(S(=O)(=O)NC4CCCCC4)c3)c(CC(=O)O)c12` [Example 7, [2-(4-Chloro-3-cyclohexylsulfamoyl-phenyl)-4-methyl-1H-indol-3-yl]-acetic Acid] yielded an IC50 of 1.5 nM. This IC50 is about 7.5-fold higher than that of the compound before.

Consider `COc1ccccc1CCNS(=O)(=O)c1cc(-c2[nH]c3ccccc3c2CC(=O)O)ccc1Cl` [Example 2(a), (2-{4-Chloro-3-[2-(2-methoxy-phenyl)-ethylsulfamoyl]-phenyl}-1H-indol-3-yl)-acetic Acid], for which half-maximal inhibition (IC50) was put at 3.8 nM.

With `CS(=O)(=O)NC(=O)Cc1c(-c2ccc(Cl)c(S(=O)(=O)NC3CCCCC3)c2)[nH]c2ccccc12` [Example 9, 2-Chloro-N-cyclohexyl-5-[3-(2-methanesulfonylamino-2-oxo-ethyl)-1H-indol-2-yl]-benzenesulfonamide], half-maximal inhibition (IC50) required 2 nM.

On to `O=C(O)Cc1c(-c2ccc(Cl)c(S(=O)(=O)NCc3c(Cl)cccc3Cl)c2)[nH]c2ccccc12` [Example 1(b), {2-[4-Chloro-3-(2,6-dichloro-benzylsulfamoyl)-phenyl]-1H-indol-3-yl}-acetic Acid], for which the IC50 came to 3 nM.

In the case of `O=C(O)Cc1c(-c2ccc(Cl)c(S(=O)(=O)NCCCc3ccccc3)c2)[nH]c2ccccc12` [Example 2(f), {2-[4-Chloro-3-(3-phenyl-propylsulfamoyl)-phenyl]-1H-indol-3-yl}-acetic Acid], the midpoint of inhibition, the IC50, lay at 7 nM. This IC50 lies about 2.3-fold higher than the previous one.

The compound `O=C(Cc1c(-c2ccc(Cl)c(S(=O)(=O)NC3CCCCC3)c2)[nH]c2ccccc12)NS(=O)(=O)C(F)(F)F` [Example 11, 2-Chloro-N-cyclohexyl-5-[3-(2-oxo-2-trifluoromethanesulfonylamino-ethyl)-1H-indol-2-yl]-benzenesulfonamide] had an IC50 of 14 nM. Compared with the last compound, the IC50 is about 2-fold higher.

Compound `O=C(O)Cc1c(-c2ccc(Cl)c(S(=O)(=O)NC3CCCCC3)c2)[nH]c2cccc(F)c12` [Example 6, [2-(4-Chloro-3-cyclohexylsulfamoyl-phenyl)-4-fluoro-1H-indol-3-yl]-acetic Acid] displayed an IC50 of 0.7 nM.

For the compound `O=C(O)Cc1c(-c2ccc(Cl)c(S(=O)(=O)NCc3ccc(Cl)cc3Cl)c2)[nH]c2ccccc12` [Example 1(a), {2-[4-Chloro-3-(2,4-dichloro-benzylsulfamoyl)-phenyl]-1H-indol-3-yl}-acetic Acid], the IC50 came out at 4 nM.

Consider `CCc1ccc(-c2[nH]c3ccccc3c2CC(=O)O)cc1S(=O)(=O)NC1CCCCC1` [Example 13, [2-(3-cyclohexylsulfamoyl-4-ethyl-phenyl)-1H-indol-3-yl]-acetic Acid], for which the IC50 amounted to 0.5 nM.

Compound `O=C(Cc1c(-c2ccc(Cl)c(S(=O)(=O)NC3CCCCC3)c2)[nH]c2ccccc12)Nc1nnn[nH]1` [Example 12, 2-[2-(4-Chloro-3-cyclohexylsulfamoyl-phenyl)-1H-indol-3-yl]-N-(1H-tetrazol-5-yl)-acetamide] came in with an IC50 of 15 nM.

Compound `O=C(O)Cc1c(-c2ccc(Cl)c(S(=O)(=O)NCCc3ccc(Cl)cc3Cl)c2)[nH]c2ccccc12` [Example 1(d), (2-{4-Chloro-3-[2-(2,4-dichloro-phenyl)-ethylsulfamoyl]-phenyl}-1H-indol-3-yl)-acetic Acid] had an IC50 of 2 nM.

With `O=C(O)Cc1c(-c2ccc(Cl)c(S(=O)(=O)NCc3cc(Cl)cc(Cl)c3)c2)[nH]c2ccccc12` [Example 1(c), {2-[4-Chloro-3-(3,5-dichloro-benzylsulfamoyl)-phenyl]-1H-indol-3-yl}-acetic Acid], the IC50 stood at 12 nM.

The compound `COc1cccc(CCNS(=O)(=O)c2cc(-c3[nH]c4ccccc4c3CC(=O)O)ccc2Cl)c1` [Example 2(b), (2-{4-Chloro-3-[2-(3-methoxy-phenyl)-ethylsulfamoyl]-phenyl}-1H-indol-3-yl)-acetic Acid] had an IC50 of 3.3 nM. This IC50 is about 3.6-fold lower than that of the compound before.

`CC(C(=O)O)c1c(-c2ccc(Cl)c(S(=O)(=O)NC3CCCCC3)c2)[nH]c2ccccc12` (stereo not shown) [Example 14, 2-[2-(4-Chloro-3-cyclohexylsulfamoyl-phenyl)-1H-indol-3-yl]-propionic Acid] registered an IC50 of 5.3 nM.

The compound `COc1ccc(CCNS(=O)(=O)c2cc(-c3[nH]c4ccccc4c3CC(=O)O)ccc2Cl)cc1` [Example 2(c), (2-{4-Chloro-3-[2-(4-methoxy-phenyl)-ethylsulfamoyl]-phenyl}-1H-indol-3-yl)-acetic Acid] registered an IC50 of 3 nM.

`O=C(O)Cc1c(-c2ccc(Cl)c(S(=O)(=O)Cc3cccc(Cl)c3)c2)[nH]c2ccccc12` [Example 15, {2-[4-Chloro-3-(3-chloro-phenylmethanesulfonyl)-phenyl]-1H-indol-3-yl}-acetic Acid] gave an IC50 of 106 nM.

`O=C(O)Cc1c(-c2ccc(Cl)c(S(=O)(=O)NC3CCCCC3)c2)[nH]c2c(Cl)cccc12` [Example 8, [7-Chloro-2-(4-chloro-3-cyclohexylsulfamoyl-phenyl)-1H-indol-3-yl]-acetic Acid] had an IC50 of 3.7 nM.

`O=C(O)Cc1c(-c2ccc(Cl)c(S(=O)(=O)NCCc3ccccc3OC(F)(F)F)c2)[nH]c2ccccc12` [Example 2(d), (2-{4-Chloro-3-[2-(2-trifluoromethoxy-phenyl)-ethylsulfamoyl]-phenyl}-1H-indol-3-yl)-acetic Acid] displayed an IC50 of 20 nM.
